Laboratory results taken from US20230204565A1, “Methods for Culturing Cancer Cells and for Inhibiting Invasion of Cancer” (The Regents of the University of California, priority 2020, published 2023).
Entries after “also recorded” stand apart in the source; their conditions may differ.

Legend:
oRG cells = experiment: Time-lapse imaging of mitotic somal translocation (MST) after shRNA knockdown, primary cortical slice culture; assay type: cell-based, human; settings: for length of MST (somal translocation length): oRG cells during normal human development, primary slice culture, vs scrambled control hairpin
From the text: As described by Hansen et al. (2010), human fetal brain tissue was collected and transported in artificial CSF (ACSF; 125 mm NaCl, 2.5 mm KCI, 1 mm MgCl2, 2 mm CaCl2, 1.25 mm NaH2PO4, 25 mm NaHCO3, 25 mm d-(+)-glucose, bubbled with 95%O2/5%CO2). Brain tissue was embedded in 3% low melting point agarose in ACSF and 250-300 µm coronal vibratome sections were generated. Sections were transferred on Millicell-CM slice culture inserts (Millipore) and cultured in cortical slice culture medium (66% BME, 25% Hanks, 5% FBS, 1% N-2, 1% penicillin, streptomycin and glutamine, all Invitrogen, and 0.66% d-(+)-glucose, Sigma-Aldrich). High titer gfp labeled lentivirus was applied directly to slices that were then cultured at 37° C., 5% CO2, 8% O2 for ~ 96 h. For time-lapse imaging, cultures were then transferred to an inverted Leica TCS SP5 with an on-stage incubator streaming 5% CO2, 5% O2, balance N2 into the chamber. Slices were imaged for GFP using a 10x objective at 15-30 min intervals for up to 3 d with repositioning of the z-stacks every ~12 h. Movies were analyzed with Imaris.
PTPRZ1 and its ligand, PTN, are identified in this disclosure as necessary for tumor invasion and viability. It was tested whether the expression of PTPRZ1 is required for the role of oRG-like cells in glioblastoma invasion using genetic and pharmacologic approaches. Previous work has linked PTPRZ1 and PTN with the Rho/Rho-kinase (ROCK) signaling pathway in glioblastoma. […] Given that the functional significance of key oRG markers such as PTPRZ1 remains unknown, and the role of MST has not been previously described in glioblastoma, the role of PTPRZ1/PTN signaling in oRG cell behavior was studied. shRNA mediated knock down of both PTPRZ1 and PTN in oRG cells was used during normal human development and the impact on MST was monitored. […] To relate these findings to invasive behavior, in vitro invasion assays were performed on PDX tumor samples treated with either control, scrambled shRNAs, PTPRZ1 shRNAs, or Rock inhibitor to inhibit MST.

[1] = tested on: patient derived xenograft (PDX) line DBTRGFL; experiment: In vitro invasion assay (gap filling); assay type: cell-based, human; settings: imaged every 24 hours, Day 0 to Day 3, vs scrambled shRNA control
Procedure: FIG. 6B. PTPRZ1 Promotes MST driven invasiveness of glioblastoma. Invasion assays of patient derived xenograft (PDX) line DBTRGFL were performed with control (scrambled shRNA), PTPRZ1 knockdown (shRNA) and Rock Inhibition. Invasions were imaged every 24 hours, and Day 0 and Day 3 are shown. Quantification was performed by calculating how much of the gap was filled. Statistics were performed for both PTPRZ1 knockdown and Rock inhibition, and statistics are showing for Rock inhibition on top and PTPRZ1 knockdown below (* = p <0.05, ** p < 0.01, *** p < 0.001, Student’s two-sided t-test).
PTPRZ1 and its ligand, PTN, are identified in this disclosure as necessary for tumor invasion and viability. It was tested whether the expression of PTPRZ1 is required for the role of oRG-like cells in glioblastoma invasion using genetic and pharmacologic approaches. Previous work has linked PTPRZ1 and PTN with the Rho/Rho-kinase (ROCK) signaling pathway in glioblastoma. […] Given that the functional significance of key oRG markers such as PTPRZ1 remains unknown, and the role of MST has not been previously described in glioblastoma, the role of PTPRZ1/PTN signaling in oRG cell behavior was studied. shRNA mediated knock down of both PTPRZ1 and PTN in oRG cells was used during normal human development and the impact on MST was monitored. […]

[2] = Proliferation, cell titer blue assay; assay type: cell-based; settings: any time point, n=5
From the text: FIG. 12D. Transplants of primary glioblastoma tumors into cortical organoids. Proliferation as indicated by cell titer blue assay is shown for PTPRZ1 shScr (Ctrl) or shPTPRZ1 (KD). […] On the right, an invasion well with white lines added to mark the bounds of the invasion chamber.

PTPRZ1 = experiment: Validation of knockdown (immunofluorescence, Western blot, qPCR); assay type: cell-based, human; settings: vs scrambled control hairpin
Procedure: FIG. 12B. Transplants of primary glioblastoma tumors into cortical organoids. […] Western blot and qPCR to validate knockdown (quantified across 3 replicates for qPCR) were also performed.

[3] = tested on: DBTRGFL patient derived xenograft line; experiment: Time-lapse imaging of MST after shRNA knockdown in PDX line; assay type: cell-based, human; settings: 4 technical replicates
Procedure: FIG. 6A. PTPRZ1 Promotes MST driven invasiveness of glioblastoma.
Dissociated tumor cells were seeded onto matrigel coated glass bottom wells. 24 hours after plating cells were infected with a CMV-adeno-GFP virus (Vector Biolabs) to allow for visualization of cell morphology and behavior. Cell were cultured at 37° C., 5% CO2, and 8% O2, and monitored for GFP and expression (~ 24 to 48 h). Cultured cells were then transferred to an inverted Leica TCS SP5 with an on-stage incubator (while streaming 5% CO2, 5% O2, balance N2 into the chamber), and imaged in both the GFP and transmitted light channels using a × 10 objective at 15-20 min intervals for up to 4. Movies were analyzed with Imaris.

[4] = tested on: primary developing human cortex cells and primary glioblastoma cells; experiment: Single-cell RNA sequencing after PTPRZ1 knockdown; assay type: cell-based; settings: primary and glioblastoma samples
From the text: FIG. 5F. Sorting for PTPRZ1 positive cells enriches for oRG-like cells. Workflow of single-cell sequencing is shown. PTPRZ1 KD and a scrambled control were used to knockdown PTPRZ1 in both primary developing human cortex cells and primary glioblastoma cells. […] (* = p-value < 0.05). […] These changes were accompanied by a significant downregulation of several outer radial glia marker genes.
Primary cells (GW 17, n = 2) and primary tumor samples (n = 2) were dissociated and infected with lentivirus either with a hairpin against PTPRZ1 mRNA or a control hairpin during plating. Cells were maintained in their normal media conditions for 1 week, after which cells were removed from the plate with trypsinization, dissociated into a single-cell suspension, and captured with 10X v2 single-cell as previously described.
To better understand the molecular mechanism of PTPRZ1 signaling in glioblastoma tumor propagation, and to characterize how these cells differ from normal radial glia, in vitro KD was performed of PTRPZ1 in dissociated cell culture of primary developing cortex, primary tumor dissociated cell culture, and PDX dissociated cell culture. […] Each control/treatment pair was analyzed individually and the radial glia populations were isolated for further examination (FIG. 5F). […]

Row | Substance | length of MST (somal translocation length) (oRG cells) | somal translocation length (oRG cells; primary samples, 3 biological replicates and 4 technical replicates each (FIG. 6A)) | invasive behavior of the PDX tumors [1] | Proliferation, difference shScr (Ctrl) vs shPTPRZ1 (KD) [2] | PTPRZ1 protein knockdown (PTPRZ1) | length of MST (somal translocation length) [3] | proportion of radial glia and other progenitor populations ([4]; 1 week after lentiviral infection, vs scrambled hairpin) | expression of other key markers of radial glia identity ([4]; radial glia populations)
1 | PTPRZ1 shRNA: short hairpin RNA against PTPRZ1 mRNA, lentivirus-delivered; exemplary sequence SEQ ID NO: 5 (CCGGCCAGACAACAAGCACAAGAATCTCGAGATTCTTGTGCTTGTTGTCTGGTTTTT) | significantly reduced the length of MST; also recorded: decrease the length of somal translocation length | decrease the length of somal translocation length | significantly decreased the invasive behavior | not significant | validates protein knockdown | similarly impacted the length of MST; also recorded: decrease the length of somal translocation length | decrease in the proportion of both radial glia and other progenitor populations | down-regulated
2 | PTN shRNA: short hairpin RNA knocking down PTN, the ligand of PTPRZ1; exemplary sequence SEQ ID NO: 6 (CCGGAGGCAAGAAACAGGAGAAGATCTCGAGATCTTCTCCTGTTTCTTGCCTTTTTT) | significantly reduced the length of MST; also recorded: decrease the length of somal translocation length |  |  |  |  |  |  | 
